Results taken from PMC10819485 (2024).

How the values were obtained:
[1] = system: M70 (colorimetric form) (DNA, aptamer) GCTTCCAGCTTATTGAATTACACGCAGAGGGTAGCGGCTCTGCGCATTCAATTGCTGCGCGCTGAAGCGCGGAAGC; experiment: AuNP aggregation colorimetry; conditions: NaCl; A660/A520 ratio rises with E2; room temperature
[2] = system: M70 (electrode form) (DNA, aptamer) GCTTCCAGCTTATTGAATTACACGCAGAGGGTAGCGGCTCTGCGCATTCAATTGCTGCGCGCTGAAGCGCGGAAGC; experiment: differential pulse voltammetry aptasensor; conditions: peak current falls with log E2, 5 pg/mL to 20 ng/mL; immobilised aptamer
[3] = system: HEV1 (electrode form) (DNA, aptamer) AGCAGCTTATTGCTGAATTTTT; experiment: differential pulse voltammetry aptasensor; conditions: peak current falls with log E2, from 5 pg/mL; immobilised aptamer
[4] = system: HEV2 (MST form) (DNA, aptamer) AGCAGATGAATCTGAATTTTT; experiment: microscale thermophoresis; conditions: NaCl 300 mM, MgCl2 5 mM (aptamer buffer); 20 mM Tris pH 7.6, 0.01% Tween 20; highest E2 1000 nM
[5] = system: HEV1 (colorimetric form) (DNA, aptamer) AGCAGCTTATTGCTGAATTTTT; experiment: AuNP aggregation colorimetry; conditions: NaCl; A660/A520 ratio rises with E2, 0.2 to 1 μg/mL; room temperature
[6] = system: HEV1 (MST form) (DNA, aptamer) AGCAGCTTATTGCTGAATTTTT; experiment: microscale thermophoresis; conditions: NaCl 300 mM, MgCl2 5 mM (aptamer buffer); 20 mM Tris pH 7.6, 0.01% Tween 20; E2 up to 1000 nM; 30 min incubation; abstract 92 nM

binding [1]: yes
binding [2]: yes
binding [3]: yes
binding [4]: no
binding [5]: yes
KD [6]: 92.76 ± 66.02 nM
Structure (SMILES): C[C@]12CC[C@@H]3c4ccc(O)cc4CC[C@H]3[C@@H]1CC[C@@H]2O
